Measured values as given in ChEMBL document CHEMBL2074486, “Identification of basic residues involved in drug export function of human multidrug resistance-associated protein 2” (J Biol Chem, 2000).

Key:
[1] = target: T1, ATP-binding cassette sub-family C member 2 (Homo sapiens, UniProt Q92887); test: TP_TRANSPORTER: excretion in MRP2-expressing CHO cells; format: functional, cell-based; details: hamster
[2] = target: T1, ATP-binding cassette sub-family C member 2; test: TP_TRANSPORTER: excretion in MRP2-expressing COS-7 cells; format: functional, cell-based; details: monkey

T1 sequence (Q92887 whole entry): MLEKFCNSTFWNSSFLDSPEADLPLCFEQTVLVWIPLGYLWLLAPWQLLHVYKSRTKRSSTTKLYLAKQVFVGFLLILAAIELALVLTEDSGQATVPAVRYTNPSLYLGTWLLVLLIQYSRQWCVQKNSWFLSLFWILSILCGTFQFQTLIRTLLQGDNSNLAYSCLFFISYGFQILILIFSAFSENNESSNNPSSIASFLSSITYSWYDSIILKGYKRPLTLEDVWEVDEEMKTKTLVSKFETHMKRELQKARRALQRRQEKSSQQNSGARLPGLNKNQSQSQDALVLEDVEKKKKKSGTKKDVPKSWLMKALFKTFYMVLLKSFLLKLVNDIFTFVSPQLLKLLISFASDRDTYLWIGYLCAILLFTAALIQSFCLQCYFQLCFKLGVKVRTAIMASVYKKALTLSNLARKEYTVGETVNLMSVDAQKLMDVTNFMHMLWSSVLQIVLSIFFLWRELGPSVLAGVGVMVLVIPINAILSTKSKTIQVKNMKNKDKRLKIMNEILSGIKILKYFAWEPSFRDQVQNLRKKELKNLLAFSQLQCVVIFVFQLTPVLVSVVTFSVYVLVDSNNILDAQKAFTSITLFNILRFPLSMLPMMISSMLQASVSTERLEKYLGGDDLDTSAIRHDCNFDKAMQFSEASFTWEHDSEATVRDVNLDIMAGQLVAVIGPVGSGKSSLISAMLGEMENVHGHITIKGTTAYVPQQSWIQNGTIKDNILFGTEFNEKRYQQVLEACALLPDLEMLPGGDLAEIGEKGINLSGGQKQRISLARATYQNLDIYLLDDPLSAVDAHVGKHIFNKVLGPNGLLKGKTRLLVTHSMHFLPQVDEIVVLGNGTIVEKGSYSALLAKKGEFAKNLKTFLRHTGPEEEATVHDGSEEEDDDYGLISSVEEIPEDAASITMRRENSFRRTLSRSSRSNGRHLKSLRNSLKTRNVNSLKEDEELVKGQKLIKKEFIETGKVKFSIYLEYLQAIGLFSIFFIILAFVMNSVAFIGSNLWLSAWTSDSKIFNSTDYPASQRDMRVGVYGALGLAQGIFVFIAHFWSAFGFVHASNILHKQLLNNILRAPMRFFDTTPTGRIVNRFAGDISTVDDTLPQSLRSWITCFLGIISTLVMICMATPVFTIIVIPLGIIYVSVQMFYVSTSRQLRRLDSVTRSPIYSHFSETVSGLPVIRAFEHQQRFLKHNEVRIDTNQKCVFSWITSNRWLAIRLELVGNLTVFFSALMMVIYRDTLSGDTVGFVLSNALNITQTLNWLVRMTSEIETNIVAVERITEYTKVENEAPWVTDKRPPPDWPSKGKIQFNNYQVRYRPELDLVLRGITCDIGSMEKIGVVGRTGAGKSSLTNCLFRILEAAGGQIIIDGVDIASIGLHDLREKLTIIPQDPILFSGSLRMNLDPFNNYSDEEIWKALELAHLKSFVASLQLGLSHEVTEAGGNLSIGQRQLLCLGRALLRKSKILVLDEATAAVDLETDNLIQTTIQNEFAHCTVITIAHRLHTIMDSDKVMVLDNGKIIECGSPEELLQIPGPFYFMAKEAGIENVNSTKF

Activity [1]	Activity [2]	SMILES
substrate [+]	substrate [+]	N[C@@H](CCC(=O)N[C@H](CSc1cc(=O)n2c(=O)ccn12)C(=O)NCC(=O)O)C(=O)O
substrate [+]	substrate [+]	N[C@@H](CCC(=O)N[C@H](CSCc1ccc(-c2c3ccc(=O)cc-3oc3cc(O)ccc23)c(C(=O)O)c1)C(=O)NCC(=O)O)C(=O)O [Glutathione-methylfluorescein]
